In patent US12568972B2, “Pyridazinol compounds and derivatives, preparation methods, herbicidal compositions and applications thereof” (Qingdao Kingagroot Chemical Compound Co., Ltd., priority 2018, dated 2026):

Tests used:
Assay in all cases: Post-emergence test, weed control effect
Assay type in all cases: in vivo
Details in all cases: after 3 weeks
Veronica polita = test system: Veronica polita
Outline: (§1)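 Activity is expressed as a level from 0 (no effect) to 10 (plant dead), each step matching a further 10% fresh-weight inhibition, assessed 3 weeks post-treatment. Treatment: spray at 2-3 leaf stage of pot-grown plants, compound in acetone, Tween-80 and water with 80% vegetable oil methyl ester synergist at 1500 g/ha.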

Chenopodiaceae = test system: Chenopodiaceae
Outline: as §1

Rorippa indica = test system: Rorippa indica
Outline: as §1

Amaranthus retroflexus = test system: Amaranthus retroflexus
Outline: as §1

Oc1cc(C(F)(F)F)nnc1-c1ccc(C2CC2Cl)cc1 (stereo not shown) [Compound 111]
10: weed control effect (activity level), Veronica polita (Veronica polita; dose 1000 g/ha) | weed control effect (activity level), Chenopodiaceae (Chenopodiaceae; dose 1000 g/ha) | weed control effect (activity level), Rorippa indica (Rorippa indica; dose 1000 g/ha) | weed control effect (activity level), Amaranthus retroflexus (Amaranthus retroflexus; dose 1000 g/ha)

CS(=O)(=O)c1ccc(-c2nnc(C(F)(F)F)cc2O)cc1 [Compound 114]
10: weed control effect (activity level), Veronica polita (Veronica polita; dose 1000 g/ha) | weed control effect (activity level), Chenopodiaceae (Chenopodiaceae; dose 1000 g/ha) | weed control effect (activity level), Rorippa indica (Rorippa indica; dose 1000 g/ha) | weed control effect (activity level), Amaranthus retroflexus (Amaranthus retroflexus; dose 1000 g/ha)

Oc1cc(C(F)(F)F)nnc1-c1ccc(OC(F)(F)F)cc1 [Compound 128]
10: weed control effect (activity level), Veronica polita (Veronica polita; dose 1000 g/ha) | weed control effect (activity level), Chenopodiaceae (Chenopodiaceae; dose 1000 g/ha) | weed control effect (activity level), Rorippa indica (Rorippa indica; dose 1000 g/ha) | weed control effect (activity level), Amaranthus retroflexus (Amaranthus retroflexus; dose 1000 g/ha)

CCc1cc(C(F)(F)F)cc(-c2nnc(C(F)(F)F)cc2O)c1C#N [Compound 163]
10: weed control effect (activity level), Veronica polita (Veronica polita; dose 2000 g/ha) | weed control effect (activity level), Chenopodiaceae (Chenopodiaceae; dose 2000 g/ha) | weed control effect (activity level), Rorippa indica (Rorippa indica; dose 2000 g/ha) | weed control effect (activity level), Amaranthus retroflexus (Amaranthus retroflexus; dose 2000 g/ha)

Oc1cc(C(F)(F)F)nnc1-c1cc(OC(F)F)c(Cl)cc1Cl [Compound 165]
10: weed control effect (activity level), Veronica polita (Veronica polita; dose 2000 g/ha) | weed control effect (activity level), Chenopodiaceae (Chenopodiaceae; dose 2000 g/ha) | weed control effect (activity level), Rorippa indica (Rorippa indica; dose 2000 g/ha) | weed control effect (activity level), Amaranthus retroflexus (Amaranthus retroflexus; dose 2000 g/ha)

C=Cc1cc(-c2nnc(C(F)(F)F)cc2O)c(F)cc1Cl [Compound 166]
10: weed control effect (activity level), Veronica polita (Veronica polita; dose 2000 g/ha) | weed control effect (activity level), Chenopodiaceae (Chenopodiaceae; dose 2000 g/ha) | weed control effect (activity level), Rorippa indica (Rorippa indica; dose 2000 g/ha) | weed control effect (activity level), Amaranthus retroflexus (Amaranthus retroflexus; dose 2000 g/ha)

Oc1cc(C(F)(F)F)nnc1-c1cc(Cl)c(-c2ccccc2)c(Cl)c1 [Compound 168]
10: weed control effect (activity level), Veronica polita (Veronica polita; dose 2000 g/ha) | weed control effect (activity level), Chenopodiaceae (Chenopodiaceae; dose 2000 g/ha) | weed control effect (activity level), Rorippa indica (Rorippa indica; dose 2000 g/ha) | weed control effect (activity level), Amaranthus retroflexus (Amaranthus retroflexus; dose 2000 g/ha)

Oc1cc(C(F)(F)F)nnc1-c1cc(F)cc(/C=C/Cl)c1 [Compound 169]
10: weed control effect (activity level), Veronica polita (Veronica polita; dose 2000 g/ha) | weed control effect (activity level), Chenopodiaceae (Chenopodiaceae; dose 2000 g/ha) | weed control effect (activity level), Rorippa indica (Rorippa indica; dose 2000 g/ha) | weed control effect (activity level), Amaranthus retroflexus (Amaranthus retroflexus; dose 2000 g/ha)

C#Cc1ccc(-c2nnc(C(F)(F)F)cc2O)c(OC(C)=O)c1 [Compound 173]
10: weed control effect (activity level), Veronica polita (Veronica polita; dose 2000 g/ha) | weed control effect (activity level), Chenopodiaceae (Chenopodiaceae; dose 2000 g/ha) | weed control effect (activity level), Rorippa indica (Rorippa indica; dose 2000 g/ha) | weed control effect (activity level), Amaranthus retroflexus (Amaranthus retroflexus; dose 2000 g/ha)

CCc1cc(-c2nnc(C(F)(F)F)cc2O)c(F)cc1[N+](=O)[O-] [Compound 179]
10: weed control effect (activity level), Veronica polita (Veronica polita; dose 2000 g/ha) | weed control effect (activity level), Chenopodiaceae (Chenopodiaceae; dose 2000 g/ha) | weed control effect (activity level), Rorippa indica (Rorippa indica; dose 2000 g/ha) | weed control effect (activity level), Amaranthus retroflexus (Amaranthus retroflexus; dose 2000 g/ha)

Oc1cc(C(F)(F)F)nnc1-c1cnccc1Cl [Compound 204]
10: weed control effect (activity level), Veronica polita (Veronica polita; dose 2000 g/ha) | weed control effect (activity level), Chenopodiaceae (Chenopodiaceae; dose 2000 g/ha) | weed control effect (activity level), Rorippa indica (Rorippa indica; dose 2000 g/ha) | weed control effect (activity level), Amaranthus retroflexus (Amaranthus retroflexus; dose 2000 g/ha)

Oc1cc(C(F)(F)F)nnc1-c1cccnc1Cl [Compound 205]
10: weed control effect (activity level), Veronica polita (Veronica polita; dose 2000 g/ha) | weed control effect (activity level), Chenopodiaceae (Chenopodiaceae; dose 2000 g/ha) | weed control effect (activity level), Rorippa indica (Rorippa indica; dose 2000 g/ha) | weed control effect (activity level), Amaranthus retroflexus (Amaranthus retroflexus; dose 2000 g/ha)

Cc1cncc(-c2nnc(C(F)(F)F)cc2O)c1 [Compound 211]
10: weed control effect (activity level), Veronica polita (Veronica polita; dose 2000 g/ha) | weed control effect (activity level), Chenopodiaceae (Chenopodiaceae; dose 2000 g/ha) | weed control effect (activity level), Rorippa indica (Rorippa indica; dose 2000 g/ha) | weed control effect (activity level), Amaranthus retroflexus (Amaranthus retroflexus; dose 2000 g/ha)

N#Cc1ccc(-c2nnc(C(F)(F)F)cc2O)cn1 [Compound 212]
10: weed control effect (activity level), Veronica polita (Veronica polita; dose 2000 g/ha) | weed control effect (activity level), Chenopodiaceae (Chenopodiaceae; dose 2000 g/ha) | weed control effect (activity level), Rorippa indica (Rorippa indica; dose 2000 g/ha) | weed control effect (activity level), Amaranthus retroflexus (Amaranthus retroflexus; dose 2000 g/ha)

Oc1cc(C(F)(F)F)nnc1-c1cncc(C2CC2)c1 [Compound 214]
10: weed control effect (activity level), Veronica polita (Veronica polita; dose 2000 g/ha) | weed control effect (activity level), Chenopodiaceae (Chenopodiaceae; dose 2000 g/ha) | weed control effect (activity level), Rorippa indica (Rorippa indica; dose 2000 g/ha) | weed control effect (activity level), Amaranthus retroflexus (Amaranthus retroflexus; dose 2000 g/ha)

Oc1cc(C(F)(F)F)nnc1-c1cc(Cl)nc(Cl)c1 [Compound 218]
10: weed control effect (activity level), Veronica polita (Veronica polita; dose 2000 g/ha) | weed control effect (activity level), Chenopodiaceae (Chenopodiaceae; dose 2000 g/ha) | weed control effect (activity level), Rorippa indica (Rorippa indica; dose 2000 g/ha) | weed control effect (activity level), Amaranthus retroflexus (Amaranthus retroflexus; dose 2000 g/ha)

Cc1cc(-c2nnc(C(F)(F)F)cc2O)cnc1F [Compound 219]
10: weed control effect (activity level), Veronica polita (Veronica polita; dose 2000 g/ha) | weed control effect (activity level), Chenopodiaceae (Chenopodiaceae; dose 2000 g/ha) | weed control effect (activity level), Rorippa indica (Rorippa indica; dose 2000 g/ha) | weed control effect (activity level), Amaranthus retroflexus (Amaranthus retroflexus; dose 2000 g/ha)

Cc1cc(F)ncc1-c1nnc(C(F)(F)F)cc1O [Compound 221]
10: weed control effect (activity level), Veronica polita (Veronica polita; dose 2000 g/ha) | weed control effect (activity level), Chenopodiaceae (Chenopodiaceae; dose 2000 g/ha) | weed control effect (activity level), Rorippa indica (Rorippa indica; dose 2000 g/ha) | weed control effect (activity level), Amaranthus retroflexus (Amaranthus retroflexus; dose 2000 g/ha)

Oc1cc(C(F)(F)F)nnc1-c1ccnc(Cl)c1Cl [Compound 222]
10: weed control effect (activity level), Veronica polita (Veronica polita; dose 2000 g/ha) | weed control effect (activity level), Chenopodiaceae (Chenopodiaceae; dose 2000 g/ha) | weed control effect (activity level), Rorippa indica (Rorippa indica; dose 2000 g/ha) | weed control effect (activity level), Amaranthus retroflexus (Amaranthus retroflexus; dose 2000 g/ha)

Cc1nc(F)ccc1-c1nnc(C(F)(F)F)cc1O [Compound 223]
10: weed control effect (activity level), Veronica polita (Veronica polita; dose 2000 g/ha) | weed control effect (activity level), Chenopodiaceae (Chenopodiaceae; dose 2000 g/ha) | weed control effect (activity level), Rorippa indica (Rorippa indica; dose 2000 g/ha) | weed control effect (activity level), Amaranthus retroflexus (Amaranthus retroflexus; dose 2000 g/ha)

Oc1cc(C(F)(F)F)nnc1-c1cc(Cl)ncc1Cl [Compound 224]
10: weed control effect (activity level), Veronica polita (Veronica polita; dose 2000 g/ha) | weed control effect (activity level), Chenopodiaceae (Chenopodiaceae; dose 2000 g/ha) | weed control effect (activity level), Rorippa indica (Rorippa indica; dose 2000 g/ha) | weed control effect (activity level), Amaranthus retroflexus (Amaranthus retroflexus; dose 2000 g/ha)

Cc1cc(-c2nnc(C(F)(F)F)cc2O)cnc1Cl [Compound 225]
10: weed control effect (activity level), Veronica polita (Veronica polita; dose 2000 g/ha) | weed control effect (activity level), Chenopodiaceae (Chenopodiaceae; dose 2000 g/ha) | weed control effect (activity level), Rorippa indica (Rorippa indica; dose 2000 g/ha) | weed control effect (activity level), Amaranthus retroflexus (Amaranthus retroflexus; dose 2000 g/ha)

COc1ccc(-c2nnc(C(F)(F)F)cc2O)cn1 [Compound 226]
10: weed control effect (activity level), Veronica polita (Veronica polita; dose 2000 g/ha) | weed control effect (activity level), Chenopodiaceae (Chenopodiaceae; dose 2000 g/ha) | weed control effect (activity level), Rorippa indica (Rorippa indica; dose 2000 g/ha) | weed control effect (activity level), Amaranthus retroflexus (Amaranthus retroflexus; dose 2000 g/ha)

COc1ncccc1-c1nnc(C(F)(F)F)cc1O [Compound 227]
10: weed control effect (activity level), Veronica polita (Veronica polita; dose 2000 g/ha) | weed control effect (activity level), Chenopodiaceae (Chenopodiaceae; dose 2000 g/ha) | weed control effect (activity level), Rorippa indica (Rorippa indica; dose 2000 g/ha) | weed control effect (activity level), Amaranthus retroflexus (Amaranthus retroflexus; dose 2000 g/ha)

C#Cc1cc(OC2CC2)ncc1-c1nnc(C(F)(F)F)cc1O [Compound 231]
10: weed control effect (activity level), Veronica polita (Veronica polita; dose 2000 g/ha) | weed control effect (activity level), Chenopodiaceae (Chenopodiaceae; dose 2000 g/ha) | weed control effect (activity level), Rorippa indica (Rorippa indica; dose 2000 g/ha) | weed control effect (activity level), Amaranthus retroflexus (Amaranthus retroflexus; dose 2000 g/ha)

CCSc1ccc(-c2nnc(C(F)(F)F)cc2O)cn1 [Compound 236]
10: weed control effect (activity level), Veronica polita (Veronica polita; dose 2000 g/ha) | weed control effect (activity level), Chenopodiaceae (Chenopodiaceae; dose 2000 g/ha) | weed control effect (activity level), Rorippa indica (Rorippa indica; dose 2000 g/ha) | weed control effect (activity level), Amaranthus retroflexus (Amaranthus retroflexus; dose 2000 g/ha)

Oc1cc(C(F)(F)F)nnc1-c1ccccn1 [Compound 263]
10: weed control effect (activity level), Veronica polita (Veronica polita; dose 2000 g/ha) | weed control effect (activity level), Chenopodiaceae (Chenopodiaceae; dose 2000 g/ha) | weed control effect (activity level), Rorippa indica (Rorippa indica; dose 2000 g/ha) | weed control effect (activity level), Amaranthus retroflexus (Amaranthus retroflexus; dose 2000 g/ha)

Oc1cc(C(F)(F)F)nnc1-c1ccncc1Cl [Compound 279]
10: weed control effect (activity level), Veronica polita (Veronica polita; dose 2000 g/ha) | weed control effect (activity level), Chenopodiaceae (Chenopodiaceae; dose 2000 g/ha) | weed control effect (activity level), Rorippa indica (Rorippa indica; dose 2000 g/ha) | weed control effect (activity level), Amaranthus retroflexus (Amaranthus retroflexus; dose 2000 g/ha)

CC(C)OC(=O)Nc1ccc(-c2nnc(C(F)(F)F)cc2O)cn1 [Compound 323]
10: weed control effect (activity level), Veronica polita (Veronica polita; dose 2000 g/ha) | weed control effect (activity level), Chenopodiaceae (Chenopodiaceae; dose 2000 g/ha) | weed control effect (activity level), Rorippa indica (Rorippa indica; dose 2000 g/ha) | weed control effect (activity level), Amaranthus retroflexus (Amaranthus retroflexus; dose 2000 g/ha)

C#Cc1ccc(-c2nnc(C(F)(F)F)cc2O)nn1 [Compound 349]
10: weed control effect (activity level), Veronica polita (Veronica polita; dose 2000 g/ha) | weed control effect (activity level), Chenopodiaceae (Chenopodiaceae; dose 2000 g/ha) | weed control effect (activity level), Rorippa indica (Rorippa indica; dose 2000 g/ha) | weed control effect (activity level), Amaranthus retroflexus (Amaranthus retroflexus; dose 2000 g/ha)

Oc1cc(C(F)(F)F)nnc1-c1ccc2ccccc2c1 [Compound 370]
10: weed control effect (activity level), Veronica polita (Veronica polita; dose 2000 g/ha) | weed control effect (activity level), Chenopodiaceae (Chenopodiaceae; dose 2000 g/ha) | weed control effect (activity level), Rorippa indica (Rorippa indica; dose 2000 g/ha) | weed control effect (activity level), Amaranthus retroflexus (Amaranthus retroflexus; dose 2000 g/ha)
